The values that follow come from paper PMC3495162 (Journal of medicinal chemistry, 2012).

Read-outs that look alike come from different tables or passages of the source.

One data set concerns small cell lung cancer. The settings on record: Phase I/II clinical trials; cited from earlier work.
Data set [1] concerns multiple xenograft tumor models. As to conditions: cited from earlier work.
The test system of the next data set is H146 cancer cells. As to the kind of experiment: Western blot of PARP and caspase-3 cleavage in cells. The settings on record: 24 hr. Type of data set: cell-based.
The test system of another data set is H146 cell line. The data set is described as follows: Cell death assay. It is filed as cell-based.
The test system of data set [2] is chronic lymphocytic leukemia. The settings on record: Phase I/II clinical trials; cited from earlier work.
Another data set concerns the target Mcl-1 (Homo sapiens, UniProt Q07820). As to the kind of experiment: Fluorescence polarization competitive binding assay, Mcl-1. The settings on record: at concentrations as high as 5 μM. Background: Polarisation of emitted light reports the rotation of a fluorescent probe.
The target of data set [3] is T1, Bcl-xL (Homo sapiens, UniProt Q07817). As to conditions: read-out: Bcl-xL Ki; cited from earlier work.
T1 sequence (Q07817 whole entry): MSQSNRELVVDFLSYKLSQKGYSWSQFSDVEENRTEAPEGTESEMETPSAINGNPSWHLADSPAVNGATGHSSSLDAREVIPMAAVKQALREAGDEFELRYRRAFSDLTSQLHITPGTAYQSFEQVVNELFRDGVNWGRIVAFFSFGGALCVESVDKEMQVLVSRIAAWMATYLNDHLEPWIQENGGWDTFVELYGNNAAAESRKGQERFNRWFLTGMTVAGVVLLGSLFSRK
The subject of data set [4] is H146 xenograft tumor model. The settings on record: well-tolerated dose-schedule, mice; cited from earlier work.
Data set [5] deals with T2, Bcl-2 (Homo sapiens, UniProt P10415). The settings on record: read-out: Bcl-2 Ki; cited from earlier work.
T2 sequence (P10415 whole entry): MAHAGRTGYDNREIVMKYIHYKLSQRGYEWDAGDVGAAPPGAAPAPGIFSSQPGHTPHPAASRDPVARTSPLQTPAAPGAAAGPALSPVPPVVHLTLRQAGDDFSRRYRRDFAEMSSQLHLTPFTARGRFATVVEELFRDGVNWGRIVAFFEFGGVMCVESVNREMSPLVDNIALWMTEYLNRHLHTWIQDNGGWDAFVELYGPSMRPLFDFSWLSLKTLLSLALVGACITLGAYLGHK
Data set [6] is described as follows: Maximum tolerated dose determination. As to conditions: 75 mg/kg for 28, 50 mg/kg for 30, 25 mg/kg for 31.
The target in data set [7] is T1, Bcl-xL. The data set is described as follows: Fluorescence polarization competitive binding assay, Bcl-xL.
The test system of data set [8] is H146 xenograft tumor model. The data set is described as follows: Antitumor efficacy in H146 xenograft tumor model. It is filed as in vivo, SCID mice.
The target of data set [9] is T2, Bcl-2. As to the kind of experiment: Fluorescence polarization competitive binding assay, Bcl-2.
A further data set relates to H146 xenograft tumors. As to the kind of experiment: Pharmacodynamics: PARP and caspase-3 cleavage in xenograft tumor tissue. Type of data set: in vivo, SCID mice. The settings on record: single i.v. dose, 28 at 50 mg/kg or 30 at 25 mg/kg; 3- and 6-h time-points.
Setting [10] is: 28 at 50 mg/kg, 30 at 25 mg/kg, i.v., daily, 5 days a week for two weeks.

Sequence of Mcl-1 (Q07820 whole entry): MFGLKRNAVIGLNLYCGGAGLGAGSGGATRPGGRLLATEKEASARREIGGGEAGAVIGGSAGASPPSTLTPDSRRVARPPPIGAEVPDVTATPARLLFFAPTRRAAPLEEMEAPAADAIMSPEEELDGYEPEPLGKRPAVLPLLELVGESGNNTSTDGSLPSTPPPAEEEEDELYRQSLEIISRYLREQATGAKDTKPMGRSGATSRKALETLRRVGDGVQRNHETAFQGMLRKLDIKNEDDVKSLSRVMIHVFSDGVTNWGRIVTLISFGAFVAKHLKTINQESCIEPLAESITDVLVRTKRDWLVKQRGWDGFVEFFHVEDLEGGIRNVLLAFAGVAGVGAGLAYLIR

With `CC1(C)CCC(c2ccc(Cl)cc2)=C(CN2CCN(c3ccc(C(=O)NS(=O)(=O)c4ccc(N[C@H](CCN5CCOCC5)CSc5ccccc5)c(S(=O)(=O)C(F)(F)F)c4)cc3)CC2)C1` [Compound 2], the “Single-agent activity in patients with small cell lung cancer” value in the data set on small cell lung cancer is “very limited single-agent activity”. Besides, the “Antitumor activity in xenograft tumor models” value in data set [1] was “efficiently induce tumor regression”. Moreover, in the data set on H146 cancer cells, the “Concentration inducing clear cleavage of PARP and activation of caspase-3” value is reported as 30 nM. Besides, in the data set with H146 cell line (24 hr treatment, trypan blue), the “Concentration with a similar effect (>50% of H146 cells undergoing cell death)” value is 30 to 100 nM. The “Antitumor activity in patients in chronic lymphocytic leukemia” value in data set [2] was “evidence of promising antitumor activity”.
In general, Ki refers to the dissociation constant of the complex between target and ligand, obtained from inhibition or displacement. Take `CCn1c(C)c(C(=O)O)c(-c2cccc(N3CCN(c4ccc(NS(=O)(=O)c5ccc(N[C@H](CCN(C)C)CSc6ccccc6)c([N+](=O)[O-])c5)cc4)CC3)c2)c1-c1ccc(Cl)cc1` [Compound 3]: the “Binding to Mcl-1” value on Mcl-1 is listed as “no appreciable binding”. For the same compound, the Ki on Bcl-xL [3] and on Bcl-2 [5] was below 1 nM in each case. The “Antitumor activity in H146 xenograft model” value in data set [4] is reported as “fails to achieve durable tumor regression”.
Take `CCn1c(C)c(C(=O)O)c(-c2cccc(N3CCN(c4ccc(NS(=O)(=O)c5ccc(N[C@H](CCN6CCC(O)CC6)CSc6ccccc6)c(S(=O)(=O)C(F)(F)F)c5)cc4)CC3)c2)c1-c1ccc(Cl)cc1` [Compound 30, (R)-5-(4-Chlorophenyl)-1-ethyl-4-(3-(4-(4-(4-(4-(4-hydroxypiperidin-1-yl)-1-(phenylthio)butan-2-ylamino)-3-(trifluoromethylsulfonyl)phenylsulfonamido)phenyl)piperazin-1-yl)phenyl)-2-methyl-1H-pyrrole-3-carboxylic Acid]: the “Weight loss at higher doses” value in data set [6] was “more than 10%”. Moreover, on Bcl-xL [7], the Ki was below 1 nM. In data set [8] (setting [10]), the “Antitumor activity in H146 xenograft tumor model” value was “rapid, complete and durable tumor regression”; the “Weight loss in tumor-bearing animals compared to the vehicle control” value was “less than 10%”. Further, the “Tumor-free mice at day 47 (15 days post-treatment)” value in data set [8] (30 at 25 mg/kg i.v., 7 mice treated) is reported as “all mice were tumor-free”. The compound further registered a Ki on Bcl-2 [9] below 1 nM. For the same compound, the “Concentration inducing clear cleavage of PARP and activation of caspase-3” value in the data set on H146 cancer cells was found to be 10 nM. The “Potency in induction of cell death relative to 1 and 2” value in the data set with H146 cell line (H146, 24 hr) is “several times more potent than 1 and 2”. Moreover, in the data set on H146 xenograft tumors, the “Cleavage of PARP and caspase-3 in H146 tumor tissues” value was “robust cleavage of PARP and caspase-3”.
